Results from ChEMBL document CHEMBL5137013 (Eur J Med Chem, 2022).
Activity calls are given as the source filed them. The rule behind the calls is not given here.

Key:
HT-29 [1] = assay: Cell cycle arrest in human HT-29 cells assessed as cell accumulation at G2/M phase at 100 nM measured after 24 hrs by propidium iodide staining based flow cytometry (reference value: 20.9%); format: functional
Sus scrofa = species: Sus scrofa; assay: (§1) Inhibition of porcine brain tubulin polymerization measured at 1 min interval for 60 mins by fluorescence assay; conditions: dose 1.25-5 µM, DDE = dose-dependent effect
[2] = as §1; set-up: species or system Sus scrofa
HT-29 [3] = assay: Induction of apoptosis in human HT-29 cells assessed as up regulation of Bax expression at 25 to 100 nM measured after 24 hrs by Western blot analysis; format: functional, cell-based; conditions: dose 25-100 nM
[4] = Toxicity in human HT-29 cells xenografted BALB/c nude mouse assessed as effect on liver at 5 to 10 mg/kg, ip administered as 2 days interval for 3 weeks and measured 3 weeks post-initial dosing by H and E staining based histopathological analysis; format: organism-based; conditions: in vivo, 504 h, dose 5-10 mg/kg
HT-29 [5] = assay: Cell cycle arrest in human HT-29 cells assessed as increase in cell accumulation at G2/M phase measured after 24 hrs by propidium iodide staining based flow cytometry; format: functional; conditions: dose 12.5-100 nM, DDE = dose-dependent effect
HT-29 [6] = assay: Induction of apoptosis in human HT-29 cells assessed as down regulation of phosphorylated histone H3 expression at 25 to 100 nM measured after 24 hrs by Western blot analysis; format: functional, cell-based; conditions: dose 25-100 nM
HT-29 [7] = assay: Cell cycle arrest in human HT-29 cells assessed as effect on cyclin B1 expression at 25 to 100 nM measured after 24 hrs by Western blot analysis; format: functional, cell-based; conditions: dose 25-100 nM
HT-29 [8] = assay: Induction of mitochondrial dysfunction in human HT-29 cells assessed as increase in green fluorescence intensity measured after 24 hrs by JC-1 staining based JC-1 dye based confocal laser scanning microscopy; format: functional, cell-based; conditions: dose 25-100 nM, DDE = dose-dependent effect
Tubulin (Homo sapiens) [9] = biological target: T1, Tubulin (Homo sapiens) (UniProt P68371+Q9H4B7+P0DPH7+P68366+Q13509+Q71U36+P04350+Q3ZCM7+P07437+P68363+Q9BQE3+Q6PEY2+Q13885+Q9BVA1+Q9BUF5); assay: Inhibition of tubulin polymerization in human HT-29 cells assessed as up regulation of acetylated-alpha-tubulin expression at 25 to 100 nM measured after 24 hrs by Western blot analysis; format: cell-based; conditions: dose 25-100 nM
HT-29 [10] = assay: Induction of apoptosis in human HT-29 cells assessed as up regulation of Bcl-2 expression at 25 to 100 nM measured after 24 hrs by Western blot analysis; format: functional, cell-based; conditions: dose 25-100 nM
[11] = Cmax in Sprague-Dawley rat at 10 mg/kg, iv by HPLC-MS/MS analysis; format: ADME, organism-based; set-up: dose 10 mg/kg, route iv; conditions: in vivo
[12] = Toxicity in human HT-29 cells xenografted BALB/c nude mouse assessed as effect on spleen at 5 to 10 mg/kg, ip administered as 2 days interval for 3 weeks and measured 3 weeks post-initial dosing by H and E staining based histopathological analysis; format: organism-based; conditions: in vivo, 504 h, dose 5-10 mg/kg
[13] = Cytotoxicity against human MCF7/TxR cells assessed as reduction in cell viability measured after 24 hrs by MTT assay; format: functional, cell-based
[14] = Toxicity in human HT-29 cells xenografted BALB/c nude mouse assessed as effect on lung at 5 to 10 mg/kg, ip administered as 2 days interval for 3 weeks and measured 3 weeks post-initial dosing by H and E staining based histopathological analysis; format: organism-based; conditions: in vivo, 504 h, dose 5-10 mg/kg
HT-29 [15] = assay: Induction of apoptosis in human HT-29 cells assessed as down regulation of Bim expression at 25 to 100 nM measured after 24 hrs by Western blot analysis; format: functional, cell-based; conditions: dose 25-100 nM
[16] = Resistance index, ratio of IC50 for human A549/TxR cells to IC50 for human A549 cells; format: functional
[17] = Half-life in Sprague-Dawley rat at 10 mg/kg, iv by HPLC-MS/MS analysis; format: ADME, organism-based; conditions: in vivo
HT-29 [18] = assay: Inhibition of colony formation in human HT-29 cells at 12.5 nM measured after 24 hrs by crystal violet staining based assay; format: functional, cell-based
HT-29 [19] = assay: Induction of apoptosis in human HT-29 cells assessed as increase in PARP expression at 25 to 100 nM measured after 24 hrs by Western blot analysis; format: functional, cell-based; conditions: dose 25-100 nM
[20] = Clearance in Sprague-Dawley rat at 10 mg/kg, iv by HPLC-MS/MS analysis; format: ADME, organism-based; conditions: in vivo
[21] = Resistance index, ratio of IC50 for human MCF7/TxR cells to IC50 for human MCF7 cells; format: functional
HT-29 [22] = assay: Antitumor activity against human HT-29 cells xenografted in ip dosed BALB/c nude mouse assessed as tumor growth inhibition administered at 2 days interval for 3 weeks; format: functional, organism-based; conditions: DDE = dose-dependent effect
MDA-MB-231 = assay: Cytotoxicity against human MDA-MB-231 cells assessed as reduction in cell viability measured after 24 hrs by MTT assay; format: functional, cell-based; conditions: MDA-MB-231, 24 h
HT-29 [23] = assay: Induction of apoptosis in human HT-29 cells assessed as up regulation of phosphorylated Bcl-2 expression at 25 to 100 nM measured after 24 hrs by Western blot analysis; format: functional, cell-based; conditions: dose 25-100 nM
[24] = Tmax in Sprague-Dawley rat at 10 mg/kg, iv by HPLC-MS/MS analysis; format: ADME, organism-based; conditions: in vivo
Tubulin (Homo sapiens) [25] = biological target: T1, Tubulin (Homo sapiens); assay: Displacement of [3H] colchicine from tubulin (unknown origin) at 5 uM measured after 2 hrs by scintillation counting analysis relative to control; format: protein-complex assay
[26] = Cytotoxicity against human A549/TxR cells assessed as reduction in cell viability measured after 24 hrs by MTT assay; format: functional, cell-based
HT-29 [27] = assay: Induction of apoptosis in human HT-29 cells at 25 to 100 nM measured after 24 hrs by Annexin V-FITC/propidium iodide staining based flow cytometry; format: functional, cell-based; conditions: dose 25-100 nM
HT-29 [28] = assay: Cytotoxicity against human HT-29 cells assessed as reduction in cell viability measured after 24 hrs by MTT assay; format: functional, cell-based; conditions: HT-29, 24 h
HT-29 [29] = assay: Cell cycle arrest in human HT-29 cells assessed as effect on cdk7 expression at 25 to 100 nM measured after 24 hrs by Western blot analysis; format: functional, cell-based; conditions: dose 25-100 nM
A549 [30] = assay: Antimigratory activity against human A549 cells assessed as reduction in scratch wound recovery measured after 24 hrs by scratch wound healing assay; format: functional, cell-based; conditions: dose 15-250 nM, DDE = dose-dependent effect
Tubulin (Homo sapiens) [31] = biological target: T1, Tubulin (Homo sapiens); assay: Displacement of [3H] colchicine from tubulin (unknown origin) at 2.5 uM measured after 2 hrs by scintillation counting analysis relative to control; format: protein-complex assay
A549 [32] = assay: Antimigratory activity against human A549 cells assessed as reduction in number of penetrated cells at 12.5 to 100 nM measured after 24 hrs by crystal violet staining based transwell assay; format: functional, cell-based; conditions: dose 12.5-100 nM
HT-29 [33] = assay: Cell cycle arrest in human HT-29 cells assessed as effect on cdc2 expression at 25 to 100 nM measured after 24 hrs by Western blot analysis; format: functional, cell-based; conditions: dose 25-100 nM
[34] = Toxicity in human HT-29 cells xenografted BALB/c nude mouse assessed as effect on heart at 5 to 10 mg/kg, ip administered as 2 days interval for 3 weeks and measured 3 weeks post-initial dosing by H and E staining based histopathological analysis; format: organism-based; conditions: in vivo, 504 h, dose 5-10 mg/kg
[35] = Toxicity in human HT-29 cells xenografted BALB/c nude mouse assessed as effect on kidney at 5 to 10 mg/kg, ip administered as 2 days interval for 3 weeks and measured 3 weeks post-initial dosing by H and E staining based histopathological analysis; format: organism-based; conditions: in vivo, 504 h, dose 5-10 mg/kg

## COC(=O)c1cc2c(cc1Nc1cc(OC)c(OC)c(OC)c1)OCCO2
HT-29 [1]
  Activity: 87.5%
Sus scrofa
  inhibition: Dde
[2]
  IC50: 1090 nM
HT-29 [3]
  Activity: Active
[4]
  Activity: Non-Toxic
HT-29 [5]
  Activity: Dde
HT-29 [6]
  Activity: Active
HT-29 [7]
  Activity: Active
HT-29 [8]
  Activity: Dde
Tubulin (Homo sapiens) [9]
  inhibition: Active
HT-29 [10]
  Activity: Active
[11]
  Cmax: 6.88 µg/mL
[12]
  Activity: Non-Toxic
[13]
  IC50: 180 nM
[14]
  Activity: Non-Toxic
HT-29 [15]
  Activity: Active
[16]
  Ratio IC50: 1.2
[17]
  t1/2: 1.73 h
HT-29 [18]
  inhibition: Active
HT-29 [19]
  Activity: Active
[20]
  CL: 1.76 L/h/kg
[21]
  Ratio IC50: 1.3
HT-29 [22]
  TGI: Dde
MDA-MB-231
  IC50: 100 nM
HT-29 [23]
  Activity: Active
[24]
  Tmax: 8.4 min
Tubulin (Homo sapiens) [25]
  inhibition: 93.5%
[26]
  IC50: 310 nM
HT-29 [27]
  Activity: Active
HT-29 [28]
  IC50: 23 nM
HT-29 [29]
  Activity: Active
A549 [30]
  Activity: Dde
Tubulin (Homo sapiens) [31]
  inhibition: 77.6%
A549 [32]
  Activity: Active
HT-29 [33]
  Activity: Active
[34]
  Activity: Non-Toxic
[35]
  Activity: Non-Toxic
